The results in this text go back to patent US10207993B2 (priority 2014, dated 2019).

For experiment [1], the system named is H37Rv. Put plainly: microbe, parasite or virus in culture. Type of experiment: cell-based, M. tuberculosis. Conditions: for inhibition at 0.5 µM: Mycobacterium tuberculosis, H37RV, THP-1, 90 h, read-out: H37Rv % Inhibition at 500 nM; for H37Rv % Inhibition at 500 nM: 0.5 µM.
The target in experiment [2] is GPR109A (Homo sapiens, UniProt Q8TDS4). Type of experiment: cell-based.
GPR109A, sequence (Q8TDS4 whole entry): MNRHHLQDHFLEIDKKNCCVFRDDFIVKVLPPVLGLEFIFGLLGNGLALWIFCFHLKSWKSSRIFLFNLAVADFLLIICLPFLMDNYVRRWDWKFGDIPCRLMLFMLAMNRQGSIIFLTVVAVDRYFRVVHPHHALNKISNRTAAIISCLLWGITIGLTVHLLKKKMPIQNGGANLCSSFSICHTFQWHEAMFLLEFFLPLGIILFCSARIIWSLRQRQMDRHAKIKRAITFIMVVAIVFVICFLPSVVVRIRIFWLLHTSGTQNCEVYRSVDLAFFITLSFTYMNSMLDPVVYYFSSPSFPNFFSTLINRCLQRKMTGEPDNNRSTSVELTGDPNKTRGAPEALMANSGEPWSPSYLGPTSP

For `O=C(NC1CCCN(Cc2ccccc2)C1)C(O)(c1ccccc1)c1ccccc1` (stereo in doubt) [Compound 1029, (R)-N-(1-Benzylpiperidin-3-yl)-2-hydroxy-2,2-diphenylacetamide], the inhibition at 0.5 µM in experiment [1] came to 61%.
As to `CN1CCCC(NC(=O)C(O)(c2ccccc2)c2ccccc2)C1` (stereo in doubt) [Compound 1032, (R)-2-Hydroxy-N-(1-methylpiperidin-3-yl)-2,2-diphenylacetamide], in experiment [1], the “H37Rv % Inhibition at 500 nM” value turned out to be 72%.
Same read-out and setting: the result for `CN1CCCC(NC(=O)[C@H](O)c2ccccc2)C1` (stereo in doubt) [Compound 1045, (R)-2-Hydroxy-N-((S)-1-methylpiperidin-3-yl)-2-phenylacetamide] reads 66%.
On to `O=C(Nc1cccnc1)C(O)c1ccccc1` (stereo in doubt) [Compound 1046, (S)-2-Hydroxy-2-phenyl-N-(pyridin-3-yl)acetamide], for which the inhibition at 0.5 µM in experiment [1] turned out to be 56%.
Regarding `CN1CCC(OC(=O)C(O)c2ccccc2)CC1` (stereo in doubt) [Compound 1047, (S)-1-Methylpiperidin-4-yl 2-hydroxy-2-phenylacetate], the “H37Rv % Inhibition at 500 nM” value in experiment [1] turned out to be 68%.
Take `COC(C(=O)OC1CCCN(C)C1)c1ccccc1` (stereo in doubt) [Compound 1059, (S)-(R)-1-Methylpiperidin-3-yl 2-methoxy-2-phenylacetate]: in experiment [1], the inhibition at 0.5 µM was determined as 74%.
For the compound `CC(O)CC(=O)O` (centres unmarked) [Compound 3HBA, 3-hydroxybutyric acid], the “effect on intracellular cAMP levels” value in experiment [2] is “reduces intracellular cAMP levels”.
In the case of `C[N+]12CCC(CC1)C(OC(=O)C(O)(c1ccccc1)c1ccccc1)C2` (centres unmarked) [Compound 1008, 3-(2-Hydroxy-2,2-diphenylacetoxy)-1-methylquinuclidin-1-ium], the inhibition at 0.5 µM in experiment [1] is 42%.
Same read-out and setting: then `O=C(NC1CCCNC1)C(O)(c1ccccc1)c1ccccc1` (centres unmarked) [Compound 1016, 2-Hydroxy-2,2-diphenyl-N-(piperidin-3-yl)acetamide], with 65%; and `O=C(NC1CCN(Cc2ccccc2)CC1)C(O)(c1ccccc1)c1ccccc1` [Compound 1017, N-(1-Benzylpiperidin-4-yl)-2-hydroxy-2,2-diphenylacetamide], with 75%.
For `CN1CCCC(NC(=O)C(O)(c2ccccc2)c2ccccc2)C1` (centres unmarked) [Compound 1020, 2-Hydroxy-N-(1-methylpiperidin-3-yl)-2,2-diphenylacetamide], in experiment [1], the inhibition at 0.5 µM came out at 64%.
As to `O=C(NC1CCN(Cc2ccccc2)CC1)C(O)(c1ccccc1)c1ccccc1` [Compound 1021, N-(1-Benzylpiperidin-4-yl)-2-hydroxy-2,2-diphenylacetamide], in experiment [1], the “H37Rv % Inhibition at 500 nM” value was 74%.
Consider `O=C(NC1CN(Cc2ccccc2)C1)C(O)(c1ccccc1)c1ccccc1` [Compound 1022, N-(1-Benzylazetidin-3-yl)-2-hydroxy-2,2-diphenylacetamide], for which the inhibition at 0.5 µM in experiment [1] was 75%.
On the same count and under the same terms, the result for `O=C(N[C@@H]1CCCN(Cc2ccccc2)C1)C(O)(c1ccccc1)c1ccccc1` [Compound 1028, (R)-N-(1-Benzylpiperidin-3-yl)-2-hydroxy-2,2-diphenylacetamide] reads 77%.
The same measure, in the same setting: then `O=C(NC1CCNCC1)C(O)(c1ccccc1)c1ccccc1` [Compound 1030, 2-Hydroxy-2,2-diphenyl-N-(piperidin-4-yl)acetamide], with 52%.
The same measure, in the same setting: then `CN1CCC[C@H](NC(=O)C(O)(c2ccccc2)c2ccccc2)C1` [Compound 1031, (S)-2-Hydroxy-N-(1-methylpiperidin-3-yl)-2,2-diphenylacetamide], with 74%; and `O=C(N[C@@H]1CCCN(Cc2ccccc2)C1)C(c1ccccc1)c1ccccc1` [Compound 1034, (R)-N-(1-Benzylpiperidin-3-yl)-2,2-diphenylacetamide], with 64%.
In the case of `O=C(N[C@H]1CCCN(Cc2ccccc2)C1)C(O)c1ccccc1` (stereo partly drawn) [Compound 1035, N-((S)-1-Benzylpiperidin-3-yl)-2-hydroxy-2-phenylacetamide], the inhibition at 0.5 µM in experiment [1] amounted to 62%.
Still for that read-out and setting: the result for `CC(O)(C(=O)N[C@@H]1CCCN(Cc2ccccc2)C1)c1ccccc1` (stereo partly drawn) [Compound 1036, N-((R)-1-Benzylpiperidin-3-yl)-2 hydroxy-2-phenylpropanamide] reads 58%; that for `CN1CCC[C@@H](OC(=O)[C@H](O)c2ccccc2)C1` [Compound 1037, (R)-(R)-1-Methylpiperidin-3-yl 2-hydroxy-2-phenylacetate], 40%; that for `CN1CCC[C@H](OC(=O)[C@H](O)c2ccccc2)C1` [Compound 1038], 56%.
The same measure, in the same setting: the result for `CN1CCC[C@@H](OC(=O)[C@@H](O)c2ccccc2)C1` [Compound 1039] reads 61%; that for `CN1CCC[C@H](OC(=O)[C@@H](O)c2ccccc2)C1` [Compound 1040, (S)-(S)-1-Methylpiperidin-3-yl 2-hydroxy-2-phenylacetate], 79%.
On the same count and under the same terms, then `CN1CCC(OC(=O)[C@H](O)c2ccccc2)CC1` [Compound 1041, (R)-1-Methylpiperidin-4-yl 2-hydroxy-2-phenylacetate], with 71%.
Turning to `CN1CCC(NC(=O)[C@@H](O)c2ccccc2)CC1` [Compound 1042, (S)-2-Hydroxy-N-(1-methylpiperidin-4-yl)-2-phenylacetamide], the inhibition at 0.5 µM in experiment [1] was determined as 73%.
On the same count and under the same terms, then `CN1CCC(NC(=O)[C@H](O)c2ccccc2)CC1` [Compound 1043, (R)-2-Hydroxy-N-(1-methylpiperidin-4-yl)-2-phenylacetamide], with 72%; and `CN1CCC[C@@H](NC(=O)[C@H](O)c2ccccc2)C1` [Compound 1044, (R)-2-Hydroxy-N-((R)-1-methylpiperidin-3-yl)-2-phenylacetamide], with 65%; and `O=C(OC1CN(Cc2ccccc2)C1)[C@@H](O)c1ccccc1` [Compound 1048, (S)-1-Benzylazetidin-3-yl 2-hydroxy-2-phenylacetate], with 79%.
The same measure, in the same setting: then `O=C(NC1CCN(Cc2ccccc2)CC1)[C@H](O)c1ccccc1` [Compound 1051, (R)-N-(1-Benzylpiperidin-4-yl)-2-hydroxy-2-phenylacetamide], with 59%.
The same measure, in the same setting: then `O=C(NC1CCN(Cc2ccccc2)CC1)[C@@H](O)c1ccccc1` [Compound 1052, (S)-N-(1-Benzylpiperidin-4-yl)-2-hydroxy-2-phenylacetamide], with 73%; and `C[N+]1(C)CCC[C@@H](OC(=O)[C@H](O)c2ccccc2)C1` [Compound 1053, (R)-3-((R)-2-Hydroxy-2-phenylacetoxy)-1,1-dimethylpiperidin-1-ium], with 78%.
Consider `C[N+]1(C)CCC[C@H](OC(=O)[C@H](O)c2ccccc2)C1` [Compound 1054, (S)-3-((R)-2-Hydroxy-2-phenylacetoxy)-1,1-dimethylpiperidin-1-ium], for which, in experiment [1], the inhibition at 0.5 µM is 74%.
Take `O=C(Nc1cccnc1)[C@H](O)c1ccccc1` [Compound 1055, (R)-2-Hydroxy-2-phenyl-N-(pyridin-3-yl)acetamide]: in experiment [1], the “H37Rv % Inhibition at 500 nM” value is given as 52%.
On to `CC(=O)O[C@@H](C(=O)O[C@H]1CCCN(C)C1)c1ccccc1` [Compound 1056], for which, in experiment [1], the inhibition at 0.5 µM was 78%.
Still for that read-out and setting: the result for `CN1CC[C@@H](OC(=O)[C@H](O)c2ccccc2)C1` [Compound 1057, (R)-(R)-1-Methylpyrrolidin-3-yl 2-hydroxy-2-phenylacetate] reads 76%; that for `CN1CC[C@H](OC(=O)[C@H](O)c2ccccc2)C1` [Compound 1058], 55%; that for `COC(C(=O)O)c1ccccc1` (centres unmarked) [Compound 1060, 2-Methoxy-2-phenylacetic acid], 78%.
The same measure, in the same setting: the result for `CO[C@@H](C(=O)N1CCOC[C@@H]1C)c1ccccc1` [Compound 1074, (R)-2-Methoxy-1-((S)-3-methylmorpholino)-2-phenylethanone] reads 24%; that for `CO[C@@H](C(=O)N1CCOC[C@H]1C)c1ccccc1` [Compound 1075, (R)-2-Methoxy-1-((R)-3-methylmorpholino)-2-phenylethanone], 46%.
On the same count and under the same terms, the result for `CO[C@@H](C(=O)N1CCO[C@H](C)[C@@H]1C)c1ccccc1` [Compound 1076, (R)-1-((2R,3S)-2,3-Dimethylmorpholino)-2-methoxy-2-phenylethanone] reads 50%.
For the compound `CO[C@H](C(=O)N1CCOC[C@@H]1C)c1ccccc1` [Compound 1077, (S)-2-Methoxy-1-((S)-3-methylmorpholino)-2-phenylethanone], the inhibition at 0.5 µM in experiment [1] was 52%.

Usually inhibition stands for the drop in the measured response relative to a control, in per cent.
